Source: patent US7514443B2, “Substituted pyrazolo[1,5-a]pyrimidines as inhibitors of metabotropic glutamate receptors” (Hoffmann-La Roche Inc., priority 2003, dated 2009)

Columns and labels:
rat mGlu2 receptor = biological target: T1, rat mGlu2 receptor (Rattus norvegicus, UniProt P31421); experiment: [3H]-LY354740 binding on mGlu2 transfected CHO cell membranes; conditions: inhibition of 10 nM [3H]-LY354740 binding, membranes of mGlu2 transfected CHO cells, room temperature, 1 hour; read-out: mGluR2 Ki
T1 construct: expressed in transfected cells; membranes prepared from them
Description: [^3H]-LY354740 Binding on mGlu2 Transfected CHO Cell Membranes
Transfection and cell culture: cDNA encoding the rat mGlu2 receptor protein in pBluescript II was subcloned into the eukaryotic expression vector pcDNA I-amp from Invitrogen (NV Leek, The Netherlands). This vector construct (pcD1mGR2) was co-transfected with a psvNeo plasmid encoding the gene for neomycin resistance, into CHO cells by a modified calcium phosphate method described by Chen & Okayama (1988). The cells were maintained in Dulbecco's Modified Eagle medium with reduced L-glutamine (2 mM final concentration) and 10% dialyzed foetal calf serum from Gibco BRL (Basel, Switzerland). Selection was made in the presence of G-418 (1000 μg/ml final). Clones were identified by reverse transcription of 5 μg total RNA, follow by PCR using mGlu2 receptor specific primers 5′-[…]-3′ (SEQ ID NO: 1) and 5′-[…]-3′ (SEQ ID NO:2) in 60 mM Tris HCl (pH 10), 15 mM (NH4)2SO4, 2 mM MgCl2, 25 units/ml Taq Polymerase with 30 cycles annealing at 60° C. for 1 min., extension at 72° C. for 30 s, and 1 min. 95° C. denaturation.
Membrane preparation: Cells, cultured as above, were harvested and washed three times with cold PBS and frozen at −80° C. The pellet was resuspended in cold 20 mM HEPES-NaOH buffer containing 10 mM EDTA (pH 7.4), and homogenized with a polytron (Kinematica, AG, Littau, Switzerland) for 10 s at 10 000 rpm. After centrifugation for 30 min. at 4° C., the pellet was washed once with the same buffer, and once with cold 20 mM HEPES-NaOH buffer containing 0.1 mM EDTA, (pH 7.4). Protein content was measured using the Pierce method (Socochim, Lausanne, Switzerland) using bovine serum albumin as standard.
[^3H]-LY354740 binding: After thawing, the membranes were resuspended in cold 50 mM Tris-HCl buffer containing 2 mM MgCl2 and 2 mM CaCl2, (pH 7) (binding buffer). The final concentration of the membranes in the assays was 25 μg protein/ml. Inhibition experiments were performed with membranes incubated with 10 nM [^3H]-LY354740 at room temperature, for 1 hour, in the presence of various concentrations of the compound to be tested. Following the incubations, membranes were filtered onto Whatmann GF/C glass fiber filters and washed 5 times with cold binding buffer. Non specific binding was measured in the presence of 10 μM DCG IV. After transfer of the filters into plastic vials containing 10 ml of Ultima-gold scintillation fluid (Packard, Zürich, Switzerland), the radioactivity was measured by liquid scintillation in a Tri-Carb 2500 TR counter (Packard, Zürich, Switzerland).
Data analysis: The inhibition curves were fitted with a four parameter logistic equation giving IC50 values, and Hill coefficients.

T1 sequence (P31421 19-872): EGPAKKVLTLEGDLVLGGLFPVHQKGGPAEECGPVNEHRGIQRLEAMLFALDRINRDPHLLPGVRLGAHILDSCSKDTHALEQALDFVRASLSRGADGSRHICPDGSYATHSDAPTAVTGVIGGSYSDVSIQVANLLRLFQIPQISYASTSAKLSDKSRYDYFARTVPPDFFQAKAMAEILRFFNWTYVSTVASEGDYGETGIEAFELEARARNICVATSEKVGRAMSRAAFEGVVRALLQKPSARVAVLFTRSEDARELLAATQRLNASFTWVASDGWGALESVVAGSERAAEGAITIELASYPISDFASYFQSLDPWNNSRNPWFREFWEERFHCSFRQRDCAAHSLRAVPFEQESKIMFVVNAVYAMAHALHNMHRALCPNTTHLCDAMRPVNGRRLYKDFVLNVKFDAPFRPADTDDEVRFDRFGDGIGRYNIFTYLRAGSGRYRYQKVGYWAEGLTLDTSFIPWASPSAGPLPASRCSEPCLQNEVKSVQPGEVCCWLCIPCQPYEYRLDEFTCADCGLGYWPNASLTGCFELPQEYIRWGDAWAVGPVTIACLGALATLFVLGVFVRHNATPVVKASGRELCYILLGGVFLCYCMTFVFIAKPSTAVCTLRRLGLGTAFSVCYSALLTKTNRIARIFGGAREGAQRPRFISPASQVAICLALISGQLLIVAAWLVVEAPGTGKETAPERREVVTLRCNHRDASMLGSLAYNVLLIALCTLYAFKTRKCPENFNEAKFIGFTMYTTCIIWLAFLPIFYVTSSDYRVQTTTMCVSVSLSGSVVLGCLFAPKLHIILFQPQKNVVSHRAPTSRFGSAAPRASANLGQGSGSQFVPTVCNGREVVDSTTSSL

Structure (SMILES) | Ki (rat mGlu2 receptor) | melting point
N#Cc1cnn2c(C(F)(F)F)cc(-c3ccc(F)c(C(F)(F)F)c3)nc12 [Example 1.13, 5-(4-Fluoro-3-trifluoromethyl-phenyl)-7-trifluoromethyl-pyrazolo[1,5-a]pyrimidine-3-carbonitrile] | 43 nM | 204 °C
N#Cc1c(-c2ccc(OCC(F)(F)F)c(C(F)(F)F)c2)nn2c(C(F)(F)F)ccnc12 [Example 1.19, 2-(4-Trifluoroethoxy-3-trifluoromethyl-phenyl)-4-trifluoromethyl-pyrazolo[1,5-a]pyrimidine-8-carbonitrile] | 32 nM | 
Cc1nn2c(C(F)(F)F)cc(-c3cccc(C(F)(F)F)c3)nc2c1C#N [Example 2.2, 2-Methyl-5-(3-trifluoromethyl-phenyl)-7-trifluoromethyl-pyrazolo[1,5-a]pyrimidine-3-carbonitrile] | 72 nM | 215 °C
Cc1cc(-c2cc(C(F)(F)F)n3nc(CC#N)c(C#N)c3n2)ccc1Cl [Example 3.2, 5-(4-Chloro-3-methyl-phenyl)-2-cyanomethyl-7-trifluoromethyl-pyrazolo[1,5-a]pyrimidine-3-carbonitrile] | 76 nM | 238 °C
FC(F)(F)c1cc(-c2ccc(Cl)c(Cl)c2)nc2c(-c3cccnc3)cnn12 [Example 4.9, 5-(3,4-Dichloro-phenyl)-3-pyridin-3-yl-7-trifluoromethyl-pyrazolo[1,5-a]pyrimidine] | 47 nM | 224 °C
Cc1cc(-c2cnn3c(C(F)(F)F)cc(-c4cccc(C(F)(F)F)c4)nc23)cc(C)n1 [Example 4.24, 5-(3-Trifluoromethyl-phenyl)-3-(2,6-dimethyl-pyridin-4-yl)-7-trifluoromethyl-pyrazolo[1,5-a]pyrimidine] | 43 nM | 236 °C
Cc1cc(-c2cnn3c(C(F)(F)F)cc(-c4ccc(C(F)(F)F)c(F)c4)nc23)ccn1 [Example 4.35, 5-(3-Fluoro-4-trifluoromethyl-phenyl)-3-(2-methyl-pyridin-4-yl)-7-trifluoromethyl-pyrazolo[1,5-a]pyrimidine] | 45 nM | 250 °C
FC(F)(F)COc1ccc(-c2cc(C(F)(F)F)n3ncc(-c4ccncc4)c3n2)cc1C(F)(F)F [Example 4.43, 5-[4-(2,2,2-Trifluorothoxy)-3-trifluoromethyl-phenyl]-3-pyridin-4-yl-7-trifluoromethyl-pyrazolo[1,5-a]pyrimidine] | 48 nM | 247 °C
N#Cc1ncn2c(C(F)(F)F)cc(-c3ccc(Cl)c(Cl)c3)nc12 [Example 5.20, 5-(3,4-Dichloro-phenyl)-7-trifluoromethyl-imidazo[1,5-a]pyrimidine-8-carbonitrile] | 43 nM | 219 °C
Cc1cc(-c2cc(C(F)(F)F)n3ncc(-c4cc[n+]([O-])c(C)c4)c3n2)ccc1Cl [Example 7.1, 5-(4-Chloro-3-methyl-phenyl)-3-(2-methyl-1-oxy-pyridin-4-yl)-7-trifluoromethyl-pyrazolo[1,5-a]pyrimidine] | 43.9 nM | 
Cc1cc(-c2ncn3c(C(F)(F)F)cc(-c4ccc(C(F)(F)F)cc4)nc23)ccn1 [Example 8.24, 8-(2-Methyl-pyridin-4-yl)-4-trifluoromethyl-2-(4-trifluoromethyl-phenyl)-imidazo[1,5-a]pyrimidine] |  | 257 °C
Cc1cc(-c2ncn3c(C(F)(F)F)cc(-c4cccc(C(F)(F)F)c4)nc23)ccn1 [Example 8.25, 8-(2-Methyl-pyridin-4-yl)-4-trifluoromethyl-2-(3-trifluoromethyl-phenyl)-imidazo[1,5-a]pyrimidine] |  | 234 °C
Cc1cc(-c2ncn3c(C(F)(F)F)cc(-c4ccc(C(F)(F)F)c(C)c4)nc23)ccn1 [Example 8.29, 2-(3-Methyl-4-trifluoromethyl-phenyl)-8-(2-methyl-pyridin-4-yl)-4-trifluoromethyl-imidazo[1,5-a]pyrimidine] |  | 243 °C
CCOc1cc(-c2cc(C(F)(F)F)n3cnc(-c4ccncc4)c3n2)ccc1C(F)(F)F [Example 8.30, 2-(3-Ethoxy-4-trifluoromethyl-phenyl)-8-pyridin-4-yl-4-trifluoromethyl-imidazo[1,5-a]pyrimidine] |  | 212 °C
CCOc1cc(-c2cc(C(F)(F)F)n3cnc(-c4ccnc(C)c4)c3n2)ccc1C(F)(F)F [Example 8.31, 2-(3-Ethoxy-4-trifluoromethyl-phenyl)-8-(2-methyl-pyridin-4-yl)-4-trifluoromethyl-imidazo[1,5-a]pyrimidine] |  | 177 °C
FC(F)(F)COc1cc(-c2cc(C(F)(F)F)n3cnc(-c4ccncc4)c3n2)ccc1C(F)(F)F [Example 8.32, 8-Pyridin-4-yl-2-[3-(2,2,2-trifluoro-ethoxy)-4-trifluoromethyl-phenyl]-4-trifluoromethyl-imidazo[1,5-a]pyrimidine] |  | 233 °C
Cc1cc(-c2ncn3c(C(F)(F)F)cc(-c4ccc(C(F)(F)F)c(OCC(F)(F)F)c4)nc23)ccn1 [Example 8.33, 8-(2-Methyl-pyridin-4-yl)-2-[3-(2,2,2-trifluoro-ethoxy)-4-trifluoromethyl-phenyl]-4-trifluoromethyl-imidazo[1,5-a]pyrimidine] |  | 189 °C
FC(F)(F)c1ccc(-c2cc(C(F)(F)F)n3cnc(-c4ccncc4)c3n2)cc1C(F)(F)F [Example 8.34, 2-(3,4-Bis-trifluoromethyl-phenyl)-8-pyridin-4-yl-4-trifluoromethyl-imidazo[1,5-a]pyrimidine] |  | 211 °C
Cc1cc(-c2ncn3c(C(F)(F)F)cc(-c4ccc(C(F)(F)F)c(C(F)(F)F)c4)nc23)ccn1 [Example 8.35, 2-(3,4-Bis-trifluoromethyl-phenyl)-8-(2-methyl-pyridin-4-yl)-4-trifluoromethyl-imidazo[1,5-a]pyrimidine] |  | 218 °C
Cc1cc(-c2ncn3c(C(F)(F)F)cc(-c4ccc(Br)cc4)nc23)ccn1 [Example 8.36, 2-(4-Bromo-phenyl)-8-(2-methyl-pyridin-4-yl)-4-trifluoromethyl-imidazo[1,5-a]pyrimidine] |  | 249 °C
FC(F)c1cc(-c2ccc(C(F)(F)F)cc2)nc2c(-c3ccncc3)cnn12 [Example 9.1, 7-Difluoromethyl-3-pyridin-4-yl-5-(4-trifluoromethyl-phenyl)-pyrazolo[1,5-a]pyrimidine] |  | 222 °C
Cc1cc(-c2cnn3c(C(F)F)cc(-c4ccc(C(F)(F)F)cc4)nc23)ccn1 [Example 9.2, 7-Difluoromethyl-3-(2-methyl-pyridin-4-yl)-5-(4-trifluoromethyl-phenyl)-pyrazolo[1,5-a]pyrimidine] |  | 213 °C
Cc1cc(-c2cc(C(F)F)n3ncc(-c4ccncc4)c3n2)ccc1C(F)(F)F [Example 9.3, 7-Difluoromethyl-5-(3-methyl-4-trifluoromethyl-phenyl)-3-pyridin-4-yl-pyrazolo[1,5-a]pyrimidine] |  | 236 °C
Cc1cc(-c2cnn3c(C(F)F)cc(-c4ccc(C(F)(F)F)c(C)c4)nc23)ccn1 [Example 9.4, 7-Difluoromethyl-3-(2-methyl-pyridin-4-yl)-5-(3-methyl-4-trifluoromethyl-phenyl)-pyrazolo[1,5-a]pyrimidine] |  | 221 °C
COc1ccc(-c2cc(C(F)F)n3ncc(-c4ccncc4)c3n2)cc1 [Example 9.5, 7-Difluoromethyl-5-(4-methoxy-phenyl)-3-pyridin-4-yl-pyrazolo[1,5-a]pyrimidine] |  | 206 °C
